Test results reported in US20020198158A1, “Use of a cyclic ether for the preparation of medicaments affecting glucose tolerance” (priority 2000, published 2002).
Entries after “also recorded” stand apart in the source; their conditions may differ.

Legend:
NMRI mice [1] = test: Intravenous glucose tolerance test; format: in vivo; settings: for AUCinsulin (area under the insulin curve during the 50 min study period): anesthetized mice
Protocol: (§1) Non-fasted NMRI mice (Bomholdtgaard Breeding and Research Center, Ry, Denmark), weighing 20-25 g are used throughout the study. The animals are fed a standard pellet diet and tap water ad libitum.
The mice are anesthetized with an intraperitoneal injection of midazolam (Dormicum^R, Hoffman-La-Roche, Basel, Switzerland, 0.4 mg/mouse) and a combination of fluanison (0.9 mg/mouse) and fentanyl (0.02 mg/mouse; Hypnorm^R, Janssen, Beerse, Belgium). Thereafter, a blood sample is taken from the retrobulbar, intraorbital, capillary plexus in heparinized tubes, whereafter D-glucose (British Drug Houses, Poole, UK; 1 g/kg) is injected rapidly intravenously either alone or together with 1,5AnFru (Danisco Ltd, Copenhagen, Denmark; 0.2 or 1 g/kg); in one series of experiments, 1,5AnFru is given alone (1 g/kg). The volume load is 10 μl/g body weight. New blood samples are taken after 1, 5, 10, 20, 30 and 50 minutes. In another set of experiments, 1,5AnFru is given by gastric gavage (0.2 g/kg) five minutes before the zero blood sample taken immediately before the intravenous injection of glucose as above. Blood samples are taken as above. Following immediate centrifugation at 4° C., plasma is separated and stored at −20° C. or until analysis.
(§2) Plasma insulin is determined radioimmunochemically with the use of a guinea pig anti-rat insulin antibody, ^125I-labelled porcine insulin as tracer and rat insulin as standard (Linco Research, St Charles, Mo., USA). Free and bound radioactivity is separated by use of an anti-IgG (goat anti-guinea pig) antibody (Linco). The sensitivity of the assay is 12 pmol/l and the coefficiency of variation is less than 3% at both low and high levels. Plasma glucose is determined with the glucose oxidase method. Plasma GLP-1 is measured by a radioimmunoassay after extraction of plasma samples with ethanol. 400 μl 0.05 mol/l sodium phosphate buffer, pH 7.5, containing 6% albumin and 0.1 mol/l NaCl is added to 100 μl mouse plasma on ice and mixed well. The mixture is then extracted with 70% ethanol (vol/vol, final dilution), and after vacuum centrifugation the residue is reconstituted in assay buffer and assayed as previously described (Ørskov et al., 1994). […] The sensitivity using this procedure is 5 pmol/l, and the intra-assay coefficient of variation is 10%.
(§3) Means±SEM are shown. Area under the curve for plasma insulin levels (AUCisulin) is calculated by the trapezoid rule. Statistical analyses are performed with the SPSS for Windows system. Statistical comparisons between groups are performed with Students t-test.

GLP-1 = test: Plasma GLP-1 after gastric gavage; format: in vivo, mice; settings: P<0.05
Protocol: as §1
(§4) The mice are fasted overnight and anesthetized as above. After induction of anesthesia, D-glucose (150 mg/mouse in 0.5 ml) is administered alone or together with 1,5AnFru (150 mg/mouse) through a gavage tube (outer diameter 1.2 mm) placed in the stomach. Blood samples are taken after 15, 30, 45, 60, 90 and 120 minutes and treated as above.
Plasma insulin is determined radioimmunochemically with the use of a guinea pig anti-rat insulin antibody, ^125I-labelled porcine insulin as tracer and rat insulin as standard (Linco Research, St Charles, Mo., USA). Free and bound radioactivity is separated by use of an anti-IgG (goat anti-guinea pig) antibody (Linco). The sensitivity of the assay is 12 pmol/l and the coefficiency of variation is less than 3% at both low and high levels. Plasma glucose is determined with the glucose oxidase method. Plasma GLP-1 is measured by a radioimmunoassay after extraction of plasma samples with ethanol. 400 μl 0.05 mol/l sodium phosphate buffer, pH 7.5, containing 6% albumin and 0.1 mol/l NaCl is added to 100 μl mouse plasma on ice and mixed well. […]

isolated mouse islets = test: Insulin secretion in vitro from isolated islets; format: cell-based; settings: 60 min incubation
Protocol: Pancreatic islets are isolated from four mice with the collagenase isolation technique. In brief, the pancreas is filled retrogradely through the pancreatic duct with 3 ml of Hank's Balanced Salt Solution (Sigma), supplemented with 0.3 mg/ml of Collagenase P (activity 1.86 U/mg; Boehringer Mannheim Gmbh, Mannheim, Germany). The pancreas is subsequently removed and incubated in the same solution for 20 min at 37° C. After rinsing, the islets are handpicked under a stereomicroscope and incubated overnight in RPMI 1640 medium supplemented with 10% fetal calf serum, 2.05 mmol/l L-glutamine, 2.5 μg/ml amphotericin B (GIBCO BRL, Paisley, Scotland), 100 lU/ml penicillin and 100 μg/ml streptomycin (Biol Ind, Beit Haemek, Israel) at 37° C. in humidified air equilibrated with 5% CO2. […]
Plasma insulin is determined radioimmunochemically with the use of a guinea pig anti-rat insulin antibody, ^125I-labelled porcine insulin as tracer and rat insulin as standard (Linco Research, St Charles, Mo., USA). Free and bound radioactivity is separated by use of an anti-IgG (goat anti-guinea pig) antibody (Linco). […] Plasma glucose is determined with the glucose oxidase method. Plasma GLP-1 is measured by a radioimmunoassay after extraction of plasma samples with ethanol. […]

NMRI mice [2] = test: Gastric glucose tolerance test; format: in vivo; settings: gastric gavage glucose 150 mg/mouse with 1,5AnFru 150 mg/mouse
Protocol: as §1, §4, §2, §3

For `O=C1CO[C@H](CO)[C@@H](O)[C@@H]1O` [1,5AnFru, 1,5-anhydro-D-fructose], the “glucose-stimulated insulin secretion (insulin response to iv glucose)” value (NMRI mice [1]; 1,5AnFru 1 g/kg iv together with glucose 1 g/kg iv) was “inhibits”, the “basal plasma levels of insulin or glucose” value (NMRI mice [1]; 1,5AnFru given alone iv, 1 g/kg) was “not affected” and the “AUCinsulin (area under the insulin curve during the 50 min study period)” value (NMRI mice [1]; iv glucose 1 g/kg together with 1,5AnFru 0.2 g/kg iv) was 14.6±1.9 nmol/l×50 min. For the same compound, the “AUCinsulin (area under the insulin curve during the 50 min study period)” value (NMRI mice [1]; iv glucose 1 g/kg together with 1,5AnFru 1 g/kg iv, P=0.021 vs glucose alone) was 8.6±1.9 nmol/l×50 min, the “glucose elimination after intravenous glucose administration” value (NMRI mice [1]; iv glucose 1 g/kg with 1,5AnFru iv, 50 min study period) was “not affected; also recorded: without affecting” and the “plasma GLP-1, 30 min value” (GLP-1; 30 min after gastric gavage of glucose 150 mg/mouse with 1,5AnFru 150 mg/mouse) was 78.2 ± 8.6 pmol/L. For the same compound, the “plasma GLP-1, 60 min value” (GLP-1; 60 min after gastric gavage of glucose 150 mg/mouse with 1,5AnFru 150 mg/mouse) was 28.8 ± 3.8 pmol/L, the glucose-stimulated insulin secretion (isolated mouse islets; 16.7 mmol/l 1,5AnFru together with 11.1 mmol/l glucose) was “inhibition of insulin secretion is observed; also recorded: inhibits” and the glucose-stimulated insulin secretion (isolated mouse islets; 1,5AnFru at 11.1 mmol/l or below) was “does not affect”. For the same compound, the “AUCinsulin during 60 min” value (NMRI mice [2]; P=0.018 vs control) was 32.9 ± 2.6 nmol/L, the “AUCinsulin during the first 60 min after administration” value (NMRI mice [2]; P=0.018 vs controls) was 32.9±2.6 nmol/l in 60 min and the “60 min plasma glucose value” (NMRI mice [2]; P=0.021 vs controls) was 15.5 ± 1.6 mmol/L.
